Measurements published in ChEMBL document CHEMBL5614392, “Discovery of novel N2-indazole derivatives as phosphodiesterase 4 inhibitors for the treatment of inflammatory bowel disease” (Eur J Med Chem, 2024).
Calls of active or inactive are those of the source. No cut-off for these calls is given here.

How the values were obtained:
[1] = target: T1, 3',5'-cyclic-AMP phosphodiesterase 4D (Homo sapiens, UniProt Q08499); assay: Inhibition of PDE4D7 (unknown origin) using FAM-cyclic-3'5'-AMP as substrate at 100 nM incubated for 1 hrs by fluorescence polarization assay relative to control
[2] = target: T1, 3',5'-cyclic-AMP phosphodiesterase 4D; assay: Inhibition of PDE4D7 (unknown origin) using FAM-cyclic-3'5'-AMP as substrate at 10 nM incubated for 1 hrs by fluorescence polarization assay relative to control
[3] = target: High affinity 3',5'-cyclic-AMP phosphodiesterase 7A (Homo sapiens) (UniProt Q13946); assay: Inhibition of PDE7A (unknown origin) using FAM-cyclic-3'5'-AMP as substrate at 10 uM incubated for 1 hrs by fluorescence polarization assay relative to control
[4] = Selectivity ratio of IC50 for PDE8A (unknown origin) to IC50 for PDE4D7 (unknown origin)
HT-22 = assay: Cytotoxicity against mouse HT-22 cells at 10 to 30 uM; format: toxicity, cell-based; conditions: ht-22, 30 µM, dose 10-30 µM
[5] = Selectivity ratio of IC50 for PDE3B (unknown origin) to IC50 for PDE4D7 (unknown origin)
[6] = Selectivity ratio of IC50 for PDE7A (unknown origin) to IC50 for PDE4D7 (unknown origin)
[7] = Acute toxicity in male C57BL/6J mouse assessed as animal death at 0.1 g/Kg, po measured within 10 to 24 hrs; format: organism-based; conditions: in vivo, 100 mg/kg, time 10-24 hrs
[8] = Selectivity ratio of IC50 for PDE9A (unknown origin) to IC50 for PDE4D7 (unknown origin)
[9] = target: T1, 3',5'-cyclic-AMP phosphodiesterase 4D; assay: Inhibition of PDE4D7 (unknown origin) using FAM-cyclic-3'5'-AMP as substrate incubated for 1 hrs by fluorescence polarization assay
[10] = target: cGMP-inhibited 3',5'-cyclic phosphodiesterase 3B (Homo sapiens) (UniProt Q13370); assay: Inhibition of PDE3B (unknown origin) using FAM-cyclic-3'5'-AMP as substrate at 10 uM incubated for 1 hrs by fluorescence polarization assay relative to control
[11] = target: High affinity cAMP-specific and IBMX-insensitive 3',5'-cyclic phosphodiesterase 8A (Homo sapiens) (UniProt O60658); assay: Inhibition of PDE8A (unknown origin) using FAM-cyclic-3'5'-AMP as substrate at 10 uM incubated for 1 hrs by fluorescence polarization assay relative to control
[12] = target: High affinity cGMP-specific 3',5'-cyclic phosphodiesterase 9A (Homo sapiens) (UniProt O76083); assay: Inhibition of PDE9A (unknown origin) using FAM-cyclic-3'5'-AMP as substrate at 10 uM incubated for 1 hrs by fluorescence polarization assay relative to control
Phosphodiesterase 7 = Phosphodiesterase 7 (Homo sapiens, UniProt Q13946+Q9NP56); assay: Inhibition of PDE7 (unknown origin); format: protein assay
Phosphodiesterase 4 = Phosphodiesterase 4 (Homo sapiens, UniProt P27815+Q08499+Q07343+Q08493); assay: Inhibition of PDE4 (unknown origin); format: protein assay
[13] = target: T1, 3',5'-cyclic-AMP phosphodiesterase 4D; assay: Inhibition of PDE4D7 (unknown origin) using FAM-cyclic-3'5'-AMP as substrate at 1 uM incubated for 1 hrs by fluorescence polarization assay relative to control
Mus musculus [14] = assay: Antiinflammatory activity against DSS-induced colitis C57BL/6J mouse model assessed as decrease in body weight loss at 3 mg/kg, po pretreated with DSS for 10 days followed by twice daily compound administration for 8 days starting from day 3 to day 10 and measured on day 6; format: functional, organism-based; conditions: time 4.0 day
Mus musculus [15] = assay: Antiinflammatory activity against DSS-induced colitis C57BL/6J mouse model assessed as increase in colon length at 3 mg/kg, po pretreated with DSS for 10 days followed by twice daily compound administration for 8 days starting from day 3 to day 10; format: functional, organism-based; conditions: time 8.0 day
RAW264.7 [16] = assay: Antiinflammatory activity against mouse RAW264.7 cells assessed as inhibition of LPS-induced TNF-alpha mRNA production at 10 uM incubated for 24 hrs by SYBR green quantitative PCR analysis; format: functional, cell-based
[17] = Toxicity in ketamine/xylazine-induced anesthetic male C57BL/6J mouse model assessed as emetogenic potential by measuring reduction in anesthesia duration at 0.5 mg/kg, po preadministered with compound for 15 mins followed by ketamine/xylazine administration; format: organism-based; conditions: in vivo, 0.25 h
RAW264.7 [18] = assay: Antiinflammatory activity against mouse RAW264.7 cells assessed as inhibition of LPS-induced iNOS mRNA production at 10 uM incubated for 24 hrs by SYBR green quantitative PCR analysis; format: functional, cell-based
Mus musculus [19] = assay: Antiinflammatory activity against DSS-induced colitis C57BL/6J mouse model assessed as decrease in body weight loss at 3 mg/kg, po pretreated with DSS for 10 days followed by twice daily compound administration for 8 days starting from day 3 to day 10 relative to control; format: functional; parameters: scale not given: the % may be the effect or the level left; conditions: time 8 day
RAW264.7 [20] = assay: Antiinflammatory activity against mouse RAW264.7 cells assessed as inhibition of LPS-induced IL-6 mRNA production at 10 uM incubated for 24 hrs by SYBR green quantitative PCR analysis; format: functional, cell-based
Mus musculus [21] = assay: Antiinflammatory activity against DSS-induced colitis C57BL/6J mouse model assessed as decrease in disease activity index at 3 mg/kg, po pretreated with DSS for 10 days followed by twice daily compound administration for 8 days starting from day 3 to day 10 relative to control; format: functional, organism-based; conditions: time 8.0 day
[22] = target: T1, 3',5'-cyclic-AMP phosphodiesterase 4D; assay: Inhibition of human recombinant PDE4D using radioactively labelled cAMP and cAMP as substrate incubated for 1 hrs by luminescence based analysis
[23] = Toxicity in ketamine/xylazine-induced anesthetic male C57BL/6J mouse model assessed as emetogenic potential by measuring reduction in anesthesia duration at 5 to 10 mg/kg, po preadministered with compound for 15 mins followed by ketamine/xylazine administration; format: organism-based; conditions: in vivo, 0.25 h, dose 5-10 mg/kg
[24] = Acute toxicity in po dosed male C57BL/6J mouse assessed as lethal dose measured after 14 days; format: organism-based; conditions: in vivo, time 14 day
[25] = Oral bioavailability in male C57BL/6J mouse; format: ADME, organism-based; conditions: in vivo
[26] = target: T1, 3',5'-cyclic-AMP phosphodiesterase 4D; assay: Potency index, ratio of TPA16 IC50 to test compound IC50 for inhibition of PDE4D7 (unknown origin) using FAM-cyclic-3'5'-AMP as substrate incubated for 1 hrs by fluorescence polarization assay

T1 sequence (Q08499 whole entry): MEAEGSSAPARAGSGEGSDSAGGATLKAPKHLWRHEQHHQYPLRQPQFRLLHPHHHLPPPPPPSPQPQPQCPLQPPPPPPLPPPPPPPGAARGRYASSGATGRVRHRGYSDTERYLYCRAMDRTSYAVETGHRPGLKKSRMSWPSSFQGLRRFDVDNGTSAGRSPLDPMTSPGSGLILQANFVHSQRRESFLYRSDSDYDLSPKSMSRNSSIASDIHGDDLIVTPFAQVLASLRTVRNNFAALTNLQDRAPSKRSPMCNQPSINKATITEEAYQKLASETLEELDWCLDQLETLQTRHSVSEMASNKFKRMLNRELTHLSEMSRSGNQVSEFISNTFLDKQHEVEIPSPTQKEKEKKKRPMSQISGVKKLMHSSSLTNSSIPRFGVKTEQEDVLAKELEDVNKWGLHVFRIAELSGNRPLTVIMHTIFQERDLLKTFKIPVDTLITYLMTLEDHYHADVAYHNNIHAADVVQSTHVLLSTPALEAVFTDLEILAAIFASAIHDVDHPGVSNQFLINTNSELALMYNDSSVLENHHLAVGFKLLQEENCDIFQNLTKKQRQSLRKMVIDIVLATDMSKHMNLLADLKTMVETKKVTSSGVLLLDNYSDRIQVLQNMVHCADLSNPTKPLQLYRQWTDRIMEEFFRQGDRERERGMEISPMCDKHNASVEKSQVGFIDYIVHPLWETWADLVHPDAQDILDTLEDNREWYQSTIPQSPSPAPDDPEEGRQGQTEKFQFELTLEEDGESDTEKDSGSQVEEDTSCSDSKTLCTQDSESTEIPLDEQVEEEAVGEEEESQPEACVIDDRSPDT
Sequence of High affinity cGMP-specific 3',5'-cyclic phosphodiesterase 9A (Homo sapiens) (O76083 whole entry): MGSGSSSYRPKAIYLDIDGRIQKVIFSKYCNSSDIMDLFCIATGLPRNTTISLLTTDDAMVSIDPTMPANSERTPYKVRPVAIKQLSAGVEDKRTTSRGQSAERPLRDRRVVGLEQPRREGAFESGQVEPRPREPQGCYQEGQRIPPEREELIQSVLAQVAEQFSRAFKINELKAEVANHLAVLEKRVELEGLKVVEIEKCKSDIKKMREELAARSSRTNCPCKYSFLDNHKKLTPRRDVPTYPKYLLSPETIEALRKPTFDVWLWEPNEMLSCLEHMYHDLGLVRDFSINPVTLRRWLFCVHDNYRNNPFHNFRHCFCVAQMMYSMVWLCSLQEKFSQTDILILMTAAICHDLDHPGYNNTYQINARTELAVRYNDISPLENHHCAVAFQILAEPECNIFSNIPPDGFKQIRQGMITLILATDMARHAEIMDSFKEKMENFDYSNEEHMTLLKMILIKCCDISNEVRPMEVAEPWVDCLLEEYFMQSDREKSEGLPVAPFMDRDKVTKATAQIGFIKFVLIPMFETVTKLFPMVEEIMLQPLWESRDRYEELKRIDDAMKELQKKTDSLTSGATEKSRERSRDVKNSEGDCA
Sequence of High affinity 3',5'-cyclic-AMP phosphodiesterase 7A (Homo sapiens) (Q13946 whole entry): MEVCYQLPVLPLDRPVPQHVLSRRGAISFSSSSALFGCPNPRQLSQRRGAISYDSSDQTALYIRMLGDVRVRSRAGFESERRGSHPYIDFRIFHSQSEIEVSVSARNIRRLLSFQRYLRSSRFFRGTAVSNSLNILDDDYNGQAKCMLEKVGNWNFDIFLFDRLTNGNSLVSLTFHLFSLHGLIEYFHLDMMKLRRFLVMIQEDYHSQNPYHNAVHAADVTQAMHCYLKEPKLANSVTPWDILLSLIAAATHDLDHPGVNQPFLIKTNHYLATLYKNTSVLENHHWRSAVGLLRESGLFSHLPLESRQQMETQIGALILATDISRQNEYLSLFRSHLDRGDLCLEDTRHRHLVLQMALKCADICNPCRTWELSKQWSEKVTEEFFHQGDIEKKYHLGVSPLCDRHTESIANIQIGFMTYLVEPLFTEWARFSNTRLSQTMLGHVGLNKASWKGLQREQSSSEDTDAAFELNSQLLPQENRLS
Sequence of High affinity cAMP-specific and IBMX-insensitive 3',5'-cyclic phosphodiesterase 8A (Homo sapiens) (O60658 whole entry): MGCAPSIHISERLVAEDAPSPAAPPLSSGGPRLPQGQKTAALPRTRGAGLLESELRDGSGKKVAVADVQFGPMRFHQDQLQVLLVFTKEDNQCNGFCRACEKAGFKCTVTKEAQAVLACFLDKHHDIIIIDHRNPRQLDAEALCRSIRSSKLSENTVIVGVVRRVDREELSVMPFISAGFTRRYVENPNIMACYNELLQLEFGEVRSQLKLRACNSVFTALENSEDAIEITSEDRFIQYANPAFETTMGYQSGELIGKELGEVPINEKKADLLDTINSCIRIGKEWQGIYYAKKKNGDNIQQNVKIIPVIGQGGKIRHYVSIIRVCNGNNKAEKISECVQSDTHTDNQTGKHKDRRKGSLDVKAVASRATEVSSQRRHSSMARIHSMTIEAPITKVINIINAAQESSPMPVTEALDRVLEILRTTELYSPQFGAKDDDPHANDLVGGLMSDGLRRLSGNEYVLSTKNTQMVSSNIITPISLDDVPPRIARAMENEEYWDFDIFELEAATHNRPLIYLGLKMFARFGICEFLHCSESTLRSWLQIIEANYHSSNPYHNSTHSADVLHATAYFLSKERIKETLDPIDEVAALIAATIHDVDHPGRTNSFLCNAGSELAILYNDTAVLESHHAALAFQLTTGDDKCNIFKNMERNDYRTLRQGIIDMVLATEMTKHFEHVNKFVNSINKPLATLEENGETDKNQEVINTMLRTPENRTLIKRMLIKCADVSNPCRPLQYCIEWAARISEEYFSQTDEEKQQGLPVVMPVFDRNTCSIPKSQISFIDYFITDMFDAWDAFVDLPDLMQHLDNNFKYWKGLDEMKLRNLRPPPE
Sequence of cGMP-inhibited 3',5'-cyclic phosphodiesterase 3B (Homo sapiens) (Q13370 whole entry, looked up): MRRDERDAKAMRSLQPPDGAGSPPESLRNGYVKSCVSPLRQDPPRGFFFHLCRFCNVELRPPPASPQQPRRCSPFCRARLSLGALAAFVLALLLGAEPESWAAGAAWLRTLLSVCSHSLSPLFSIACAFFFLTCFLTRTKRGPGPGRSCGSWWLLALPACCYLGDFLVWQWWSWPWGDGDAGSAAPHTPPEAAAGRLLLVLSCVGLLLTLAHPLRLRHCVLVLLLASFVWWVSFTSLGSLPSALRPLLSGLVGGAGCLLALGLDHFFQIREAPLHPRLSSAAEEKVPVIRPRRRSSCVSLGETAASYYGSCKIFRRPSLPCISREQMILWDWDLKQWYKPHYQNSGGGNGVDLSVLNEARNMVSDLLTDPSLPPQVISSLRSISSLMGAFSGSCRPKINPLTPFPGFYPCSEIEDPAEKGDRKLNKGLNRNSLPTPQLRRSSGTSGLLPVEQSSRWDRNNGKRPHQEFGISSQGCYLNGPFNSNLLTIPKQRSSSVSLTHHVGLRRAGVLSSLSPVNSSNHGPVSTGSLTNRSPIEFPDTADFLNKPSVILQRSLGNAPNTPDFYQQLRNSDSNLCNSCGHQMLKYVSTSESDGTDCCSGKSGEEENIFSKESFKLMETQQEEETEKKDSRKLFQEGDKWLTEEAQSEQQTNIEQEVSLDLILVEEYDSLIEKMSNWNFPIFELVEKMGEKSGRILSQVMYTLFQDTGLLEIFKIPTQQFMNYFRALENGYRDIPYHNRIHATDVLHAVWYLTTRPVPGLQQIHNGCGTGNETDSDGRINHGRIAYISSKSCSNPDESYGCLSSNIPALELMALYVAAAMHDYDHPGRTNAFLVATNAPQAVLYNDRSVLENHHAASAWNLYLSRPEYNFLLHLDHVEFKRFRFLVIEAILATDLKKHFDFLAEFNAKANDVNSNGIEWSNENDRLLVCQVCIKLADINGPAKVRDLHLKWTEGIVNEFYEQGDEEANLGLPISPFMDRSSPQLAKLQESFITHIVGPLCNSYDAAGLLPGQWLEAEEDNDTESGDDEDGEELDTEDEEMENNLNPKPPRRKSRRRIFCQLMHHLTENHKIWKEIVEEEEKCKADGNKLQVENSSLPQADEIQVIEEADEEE

| SMILES | inhibition [1] [%] | inhibition [2] [%] | IC50 [9] [nM] | other results |
| --- | --- | --- | --- | --- |
| CC(C)(O)C1CN(c2ccc(OC(F)F)c3nn(C4CC4)cc23)C1 | 4 | 4 | – | – |
| NC(=O)c1cccnc1Oc1cc(-c2ccc(OC(F)F)c3nn(C4CC4)cc23)cc2c1OCO2 | 22 | – | – | – |
| COc1cc(OC)cc(-c2ccc(OC(F)F)c3nn(C4CC4)cc23)c1 | 4 | – | – | – |
| COc1cc(-c2ccc(OC(F)F)c3nn(C4CC4)cc23)ccn1 | 21 | 7 | – | – |
| FC(F)Oc1ccc(-c2ccncc2Cl)c2cn(C3CC3)nc12 | 14 | 6 | – | – |
| FC(F)Oc1ccc(N2CCOCC2)c2cn(C3CC3)nc12 | 12 | 4 | – | – |
| CNc1cc(-c2ccc(OC(F)F)c3nn(C4CC4)cc23)ccn1 | 18 | 4 | – | – |
| FC(F)Oc1ccc(-c2ccncc2)c2cn(C3CC3)nc12 | 77 | 34 | 19.9 | inhibition [3]: 13%; Ratio IC50 [4]: > 502; Activity (HT-22): Non-Toxic; Ratio IC50 [5]: > 502; Ratio IC50 [6]: > 502; Activity [7]: Toxic; Ratio IC50 [8]: > 502; inhibition [10]: 8%; inhibition [11]: 5%; inhibition [12]: 4% |
| COc1ccc(-n2ccc3cc(C#N)ccc32)c2cn(C3CC3)nc12 | 16 | 18 | – | – |
| Fc1cnccc1-c1ccc(OC(F)F)c2nn(C3CC3)cc12 | 15 | 3 | – | – |
| FC(F)Oc1ccc(-c2ccnc(N3CCOCC3)c2)c2cn(C3CC3)nc12 | 11 | 3 | – | – |
| COc1ccc(-c2ccc(OC)c3nn(C4CC4)cc23)cc1OC | 4 | 3 | – | inhibition [9]: inactive |
| OCCN(CCO)c1nc(N2CCCCC2)c2nc(N(CCO)CCO)nc(N3CCCCC3)c2n1 [DIPYRIDAMOLE] | – | – | – | IC50 (Phosphodiesterase 7): 600 nM; IC50 (Phosphodiesterase 4): 2800 nM |
| COc1ccc(-c2cccc(C(C)=O)c2)c2cn(C3CC3)nc12 | 68 | 37 | 22.9 | – |
| COc1ccc(-c2cccc(C(C)=O)c2)c2cn(C3(C(=O)NCC(C)C)CC3)nc12 | 4 | – | > 1000 | inhibition [13]: 7% |
| COc1ccc(-c2cccc(C(C)=O)c2)c2cn(C3(C(=O)NC4CCCC4)CC3)nc12 | 8 | – | > 1000 | inhibition [13]: 4% |
| N#Cc1cccnc1Oc1cc(-c2ccc(OC(F)F)c3nn(C4CC4)cc23)cc2c1OCO2 | 2 | – | – | – |
| CC(C)CNC(=O)c1cc(-c2ccc(OC(F)F)c3nn(C4CC4)cc23)ccn1 | 14 | 5 | – | – |

| SMILES | inhibition [1] [%] | inhibition [2] [%] | IC50 [9] [nM] | other results |
| --- | --- | --- | --- | --- |
| O=C(Nc1c(Cl)cncc1Cl)c1ccc(OC(F)F)c(OCC2CC2)c1 [ROFLUMILAST] | – | – | – | Activity (Mus musculus [14]): Active; Activity (Mus musculus [15]): Active; Activity (RAW264.7 [16]): Active; Activity [17]: Toxic; Activity (RAW264.7 [18]): Active; Activity (Mus musculus [19]): 7.3%; Activity (RAW264.7 [20]): Active; Activity (Mus musculus [21]): Active |
| FC(F)Oc1ccc(-c2ccnc(Cl)c2)c2cn(C3CC3)nc12 | 79 | 28 | 22.5 | – |
| CCOc1cc([C@@H](CS(C)(=O)=O)N2C(=O)c3cccc(NC(C)=O)c3C2=O)ccc1OC | – | – | – | Activity [17]: Toxic |
| COc1ccc(-c2cccc(C(C)=O)c2)n2nc(C3(C(=O)NC4CCCC4)CC3)nc12 | – | – | – | IC50 [22]: < 500 nM |
| COc1ccc(-c2cccc(C#N)c2)c2cn(C3(C(=O)NCC(C)C)CC3)nc12 | 18 | – | 380 | inhibition [13]: 81% |
| CC(=O)c1cccc(-c2ccc(OC(F)F)c3nn(C4CC4)cc23)c1 | 88 | 38 | 13.4 | Activity (HT-22): Toxic |
| COc1ccc(-c2cc(C#N)cc(Cc3ccccc3)c2)c2cn(C3CC3)nc12 | 3 | 3 | – | – |
| COc1ccc(-c2cccc(C#N)c2)c2cn(C3CC3)nc12 | 6 | 5 | – | – |
| COc1ccc(N2CC(Oc3ccccc3)C2)c2cn(C3CC3)nc12 | 9 | 7 | – | – |
| COc1ccc(-c2ccncc2)c2cn(C3CC3)nc12 | 89 | 46 | 10.1 | inhibition [3]: 13%; Ratio IC50 [4]: > 990; Activity (HT-22): Non-Toxic; Ratio IC50 [5]: > 990; Ratio IC50 [6]: > 990; Ratio IC50 [8]: > 990; Activity [23]: Non-Toxic; LD50 at 336 h [24]: 400 mg/kg; inhibition [10]: 11%; inhibition [11]: 10%; bioavailability [25]: 3.4%; inhibition [12]: 7% |
| COc1ccc(-c2cccc(CN)c2)c2cn(C3CC3)nc12 | 71 | 32 | 33.1 | – |
| Fc1cc(-c2ccc(OC(F)F)c3nn(C4CC4)cc23)ccn1 | 38 | 12 | – | – |
| COc1cc(-c2ccc(OC(F)F)c3nn(C4CC4)cc23)cc2c1OCO2 | 24 | – | – | – |
| O=C(NCc1ccccc1)c1cc(-c2ccc(OC(F)F)c3nn(C4CC4)cc23)ccn1 | 16 | 8 | – | – |
| COc1cc(-c2ccc(OC)c3nn(C4CC4)cc23)cc(OC)c1OC | 73 | 34 | 27.6 | Ratio IC50 [26]: > 20 |
| COc1ccc(C2CNC(=O)C2)cc1OC1CCCC1 (stereo not given) [ROLIPRAM] | – | – | – | Activity [17]: Toxic |
| COc1ccc(-c2cccc(C(N)=O)c2)c2cn(C3CC3)nc12 | 68 | 26 | 38.2 | – |
